# In patent US20250144067A1, “PERSONALIZED STARVATION THERAPY FOR CANCER” (Faeth Therapeutics, Inc., priority 2021, published 2025):
# Counter-ions that a name gives are not always drawn. Like-named read-outs stand apart in the source and are kept apart here.
# Key:
# [1] = tested on: NCI-H292 lung cancer cells; assay: FDA drug screening, complete media vs cholesterol-free media without statin (TABLE 1); type: cell-based, human
# [2] = tested on: NCI-H292 lung cancer cells; assay: FDA drug screening, complete media vs cholesterol-free media with simvastatin (TABLE 2); type: cell-based, human
# [3] = Complete minus Cholesterol-free, greater than 0 enhanced anti-cancer activity, about 0 neutral, below 0 antagonists
# [4] = NCI-H292 cells in cholesterol-free media without statin
# [5] = NCI-H292 cells in complete media
# [6] = NCI-H292 cells, FDA drug library screen, cholesterol-free media with simvastatin 0.04 μM
# [7] = NCI-H292 cells, FDA drug library screen, complete media
# [8] = complete media vs cholesterol-free media + simvastatin (0.04 μM), >0 enhanced anti-cancer activity, about 0 neutral, <0 antagonist
# [9] = Complete minus Cholesterol-free, >0 enhanced anti-cancer activity, about 0 neutral, <0 antagonist
# [10] = NCI-H292 cells, cholesterol-free media without statin, FDA drug library screen
# [11] = NCI-H292 cells, complete media, FDA drug library screen
# [12] = NCI-H292 cells, cholesterol-free media with simvastatin 0.04 μM, cell growth value in FDA drug screen
# [13] = NCI-H292 cells, complete media, cell growth value in FDA drug screen
# [14] = complete media minus cholesterol-free media + simvastatin, >0 enhanced anti-cancer activity, about 0 neutral, <0 antagonist
# [15] = NCI-H292 cells, cholesterol-free media without statin
# [16] = complete vs cholesterol-free media, >0 enhanced anti-cancer activity, about 0 neutral, <0 antagonist
# [17] = NCI-H292 cells, cholesterol-free media with simvastatin 0.04 μM, FDA drug library screen (TABLE 2)
# [18] = NCI-H292 cells, complete media, FDA drug library screen (TABLE 2)
# [19] = complete media minus cholesterol-free media + simvastatin (0.04 μM), >0 enhanced anti-cancer activity, about 0 neutral, <0 antagonist
# [20] = Complete minus Cholesterol-free, greater than 0 enhanced anti-cancer activity, about 0 neutral, below 0 antagonist
# [21] = NCI-H292 cells, FDA drug library screen, cholesterol-free media without statin
# [22] = NCI-H292 cells, drug in cholesterol-free media with simvastatin 0.04 μM
# [23] = NCI-H292 cells, drug in complete media
# [24] = complete vs cholesterol-free media, greater than 0 enhanced anti-cancer activity, about 0 neutral, below 0 antagonists
structure (smiles),measurement,setting,value
Cc1nc2c([nH]1)-c1ccccc1N(C(=O)c1ccc(NC(=O)c3ccccc3-c3ccccc3)cc1)CC2 [Conivaptan (hydrochloride)],Difference,[1]; [3],−0.65
same,Cholesterol-free,[1]; [4],1.641
same,Complete,[1]; [5],0.989
same,Cholesterol-free media + simvastatin (0.04 μM),[2]; [6],1.147
same,Complete Media,[2]; [7],1.002
same,Difference,[2]; [8],−0.15
COc1c(OCCCN2CCOCC2)ccc2c1N=C(NC(=O)c1cnc(N)nc1)N1CCN=C21 [Copanlisib (dihydrochloride)],Difference,[1]; [9],0.02
same,Cholesterol-free,[1]; [10],0.07316
same,Complete,[1]; [11],0.09563
same,Cholesterol-free media + simvastatin (0.04 μM),[2]; [12],0.2902
same,Complete Media,[2]; [13],0.3694
same,Difference,[2]; [14],0.08
CC(=O)OCC(=O)[C@@]1(O)CC[C@H]2[C@@H]3CCC4=CC(=O)CC[C@]4(C)[C@H]3C(=O)C[C@@]21C [Cortisone acetate],Difference,[1]; [3],−1.35
same,Cholesterol-free,[1]; [4],2.332
same,Complete,[1]; [5],0.9837
same,Cholesterol-free media + simvastatin (0.04 μM),[2]; [12],1.003
same,Complete Media,[2]; [13],1.101
same,Difference,[2]; [14],0.10
C[C@]12CCC(=O)C=C1CC[C@@H]1[C@@H]2C(=O)C[C@@]2(C)[C@H]1CC[C@]2(O)C(=O)CO [Cortisone],Difference,[1]; [9],−0.30
same,Cholesterol-free,[1]; [15],1.216
same,Complete,"[1]; NCI-H292 cells, complete media",0.9117
same,Cholesterol-free media + simvastatin (0.04 μM),[2]; [6],1.033
same,Complete Media,[2]; [7],0.8818
same,Difference,[2]; [8],−0.15
O=c1ccc2ccccc2o1 [Coumarin],Cholesterol-free,[1]; [10],0.9742
same,Complete,[1]; [11],1.716
same,Difference,[1]; [16],0.74
same,Cholesterol-free media + simvastatin (0.04 μM),[2]; [17],0.8441
same,Complete Media,[2]; [18],0.7948
same,Difference,[2]; [19],−0.05
CN(CC(=O)O)C(=N)N [Creatine],Difference,[1]; [3],−0.96
same,Cholesterol-free,[1]; [4],2.303
same,Complete,[1]; [5],1.348
same,Cholesterol-free media + simvastatin (0.04 μM),[2]; [6],1.925
same,Complete Media,[2]; [7],1.831
same,Difference,[2]; [8],−0.09
N#Cc1ccc(Oc2ccc3c(c2)COB3O)cc1 [Crisaborole],Difference,[1]; [20],−0.14
same,Cholesterol-free,[1]; [21],1.199
same,Complete,[1]; [7],1.059
same,Cholesterol-free media + simvastatin (0.04 μM),"[2]; NCI-H292 cells, FDA library drug in cholesterol-free media with simvastatin 0.04 μM",1.417
same,Complete Media,"[2]; NCI-H292 cells, FDA library drug in complete media",0.9479
same,Difference,[2]; [8],−0.47
C[C@@H](Oc1cc(-c2cnn(C3CCNCC3)c2)cnc1N)c1c(Cl)ccc(F)c1Cl [Crizotinib (hydrochloride)],Cholesterol-free,[1]; [10],0.1813
same,Complete,[1]; [11],0.2796
same,Difference,[1]; [16],0.10
same,Cholesterol-free media + simvastatin (0.04 μM),[2]; [12],0.4168
same,Complete Media,[2]; [13],0.4474
same,Difference,[2]; [14],0.03
C[C@@H](Oc1cc(-c2cnn(C3CCNCC3)c2)cnc1N)c1c(Cl)ccc(F)c1Cl [Crizotinib],Cholesterol-free,[1]; [10],0.1411
same,Complete,[1]; [11],0.3735
same,Difference,[1]; [16],0.23
same,Cholesterol-free media + simvastatin (0.04 μM),[2]; [12],0.4044
same,Complete Media,[2]; [13],0.5269
same,Difference,[2]; [14],0.12
CC(/C=C/C=C(\C)C(=O)O[C@@H]1O[C@H](CO[C@@H]2O[C@H](CO)[C@@H](O)[C@H](O)[C@H]2O)[C@@H](O)[C@H](O)[C@H]1O)=C\C=C\C=C(C)\C=C\C=C(/C)C(=O)O[C@@H]1O[C@H](CO[C@@H]2O[C@H](CO)[C@@H](O)[C@H](O)[C@H]2O)[C@@H](O)[C@H](O)[C@H]1O [Crocin],Difference,[1]; [20],−0.11
same,Cholesterol-free,[1]; [21],1.099
same,Complete,[1]; [7],0.9914
same,Cholesterol-free media + simvastatin (0.04 μM),[2]; [22],1.135
same,Complete Media,[2]; [23],0.9252
same,Difference,[2]; [8],−0.21
O=C(O)c1cc(=O)c2c(OCC(O)COc3cccc4oc(C(=O)O)cc(=O)c34)cccc2o1 [Cromolyn (sodium)],Difference,[1]; [3],−0.63
same,Cholesterol-free,[1]; [4],1.66
same,Complete,[1]; [5],1.032
same,Cholesterol-free media + simvastatin (0.04 μM),[2]; [12],0.821
same,Complete Media,[2]; [13],0.9131
same,Difference,[2]; [14],0.09
CC=CC(=O)N(CC)c1ccccc1C [Crotamiton],Difference,"[1]; Complete minus Cholesterol-free, […]",−0.17
same,Cholesterol-free,[1]; [21],1.084
same,Complete,[1]; [7],0.9155
same,Cholesterol-free media + simvastatin (0.04 μM),[2]; [22],1.259
same,Complete Media,[2]; [23],1.088
same,Difference,"[2]; complete media vs cholesterol-free media + simvastatin (0.04 μM), […]",−0.17
CC1CC(OC(=O)C(O)c2ccccc2)CC(C)(C)C1 (centres unmarked) [Cyclandelate],Difference,[1]; [9],−0.23
same,Cholesterol-free,[1]; [15],1.162
same,Complete,"[1]; NCI-H292 cells, complete media",0.935
same,Cholesterol-free media + simvastatin (0.04 μM),[2]; [22],1.188
same,Complete Media,[2]; [23],0.9668
same,Difference,[2]; [8],−0.22
CN(C)CCC=C1c2ccccc2C=Cc2ccccc21 [Cyclobenzaprine (hydrochloride)],Cholesterol-free,[1]; [10],1.08
same,Complete,[1]; [11],1.26
same,Difference,[1]; [16],0.18
same,Cholesterol-free media + simvastatin (0.04 μM),[2]; [6],1.036
same,Complete Media,[2]; [7],1.3
same,Difference,[2]; [14],0.26
CN(C)CCOC(=O)C(c1ccccc1)C1(O)CCCC1 (centres unmarked) [Cyclopentolate (hydrochloride)],Difference,[1]; [3],−0.56
same,Cholesterol-free,[1]; [4],1.412
same,Complete,[1]; [5],0.8527
same,Cholesterol-free media + simvastatin (0.04 μM),[2]; [22],1.064
same,Complete Media,[2]; [23],0.8727
same,Difference,[2]; [8],−0.19
CN1CCC(=C2c3ccccc3C=Cc3ccccc32)CC1 [Cyproheptadine (hydrochloride sesquihydrate)],Cholesterol-free,[1]; [10],0.8413
same,Complete,[1]; [11],1.399
same,Difference,[1]; [16],0.56
same,Cholesterol-free media + simvastatin (0.04 μM),[2]; [12],1.087
same,Complete Media,[2]; [13],1.192
same,Difference,[2]; [14],0.11
CN1CCC(=C2c3ccccc3C=Cc3ccccc32)CC1 [Cyproheptadine (hydrochloride)],Cholesterol-free,[1]; [10],0.9826
same,Complete,[1]; [11],1.57
same,Difference,[1]; [16],0.59
same,Cholesterol-free media + simvastatin (0.04 μM),[2]; [6],0.6096
same,Complete Media,[2]; [7],0.7817
same,Difference,[2]; [14],0.17
CC(=O)O[C@]1(C(C)=O)CC[C@H]2[C@@H]3C=C(Cl)C4=CC(=O)[C@@H]5C[C@@H]5[C@]4(C)[C@H]3CC[C@@]21C [Cyproterone acetate],Difference,[1]; [3],−1.74
same,Cholesterol-free,[1]; [4],2.754
same,Complete,[1]; [5],1.015
same,Cholesterol-free media + simvastatin (0.04 μM),[2]; [12],1.003
same,Complete Media,[2]; [13],1.068
same,Difference,[2]; [14],0.07
NCCS [Cysteamine hydrochloride],Cholesterol-free,[1]; [10],1.255
same,Complete,[1]; [11],1.431
same,Difference,[1]; [16],0.18
same,Cholesterol-free media + simvastatin (0.04 μM),[2]; [6],0.9975
same,Complete Media,[2]; [7],0.86
same,Difference,[2]; [8],−0.14
Nc1ccn([C@@H]2O[C@H](CO)[C@@H](O)[C@@H]2O)c(=O)n1 [Cytarabine (hydrochloride)],Difference,[1]; [20],−0.08
same,Cholesterol-free,[1]; [21],0.1883
same,Complete,[1]; [7],0.1064
same,Cholesterol-free media + simvastatin (0.04 μM),[2]; [17],0.3553
same,Complete Media,[2]; [18],0.3011
same,Difference,[2]; [19],−0.05
Nc1ccn([C@@H]2O[C@H](CO)[C@@H](O)[C@@H]2O)c(=O)n1 [Cytarabine],Difference,[1]; [9],−0.05
same,Cholesterol-free,[1]; [10],0.08949
same,Complete,[1]; [11],0.04199
same,Cholesterol-free media + simvastatin (0.04 μM),[2]; [6],0.2698
same,Complete Media,[2]; [7],0.1951
same,Difference,[2]; [8],−0.07
Nc1ccn([C@@H]2O[C@H](CO)[C@@H](O)[C@H]2O)c(=O)n1 [Cytidine],Difference,[1]; [9],−0.23
same,Cholesterol-free,[1]; [15],1.318
same,Complete,"[1]; NCI-H292 cells, complete media",1.09
same,Cholesterol-free media + simvastatin (0.04 μM),[2]; [22],1.411
same,Complete Media,[2]; [23],1.221
same,Difference,[2]; [8],−0.19
O=c1cccc2n1C[C@@H]1CNC[C@H]2C1 [Cytisinicline],Cholesterol-free,[1],1.156
same,Complete,[1],0.9676
same,Difference,[1],−0.19
same,Cholesterol-free media + simvastatin (0.04 μM),[2],1.003
same,Complete Media,[2],1.015
same,Difference,[2],0.01
"O=C1O[C@H](CO)[C@@H](O)[C@H](O)[C@H]1O [D-(+)-Glucono-1,5-lactone]",Cholesterol-free,[1]; [15],1.227
same,Complete,"[1]; NCI-H292 cells, complete media",0.906
same,Difference,[1]; [24],−0.32
same,Cholesterol-free media + simvastatin (0.04 μM),[2]; [6],1.196
same,Complete Media,[2]; [7],1.644
same,Difference,[2]; [14],0.45
N[C@@H]1CONC1=O [D-Cycloserine],Cholesterol-free,[1]; [15],1.516
same,Difference,[1]; [24],−0.37
same,Cholesterol-free media + simvastatin (0.04 μM),[2]; [22],1.193
same,Complete Media,[2]; [23],1.005
same,Difference,[2]; [8],−0.19
N[C@H](CS)C(=O)O [D-Cysteine],Cholesterol-free,[1]; [15],1.1
same,Complete,"[1]; NCI-H292 cells, complete media",0.7316
same,Difference,[1]; [24],−0.37
same,Cholesterol-free media + simvastatin (0.04 μM),[2]; [22],1.145
same,Complete Media,[2]; [23],0.9078
same,Difference,[2]; [8],−0.24
O=C(CO)[C@@H](O)[C@H](O)[C@H](O)CO [D-Fructose],Difference,[1]; [9],0.05
same,Cholesterol-free,[1]; [10],1.151
same,Complete,[1]; [11],1.203
same,Cholesterol-free media + simvastatin (0.04 μM),[2]; [22],1.284
same,Complete Media,[2]; [23],1.053
same,Difference,[2]; [8],−0.23
O=C(O)[C@H](O)[C@@H](O)[C@H](O)[C@H](O)CO [D-Gluconic acid],Cholesterol-free,[1],1.845
same,Complete,[1],1.115
same,Difference,[1],−0.73
same,Cholesterol-free media + simvastatin (0.04 μM),[2],1.103
same,Complete Media,[2],0.9995
same,Difference,[2],−0.10
